Data published in ChEMBL document CHEMBL1201862, “PubChem BioAssay data set” (2004).
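Five concentrations, 48 hours, 96-well plates. GI50: concentration for 50% inhibition of growth.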 Calls of active or inactive are those of the source. No stated cut-off is given here; in the data, active = GI50 up to about 1.1 µM and inactive = higher.

Experiments:
Assay in all cases: growth of human tumour cells (NCI), 48 h
HT-29 = system: HT-29
NCI-H23 = system: NCI-H23
A549 = system: A549
OVCAR-4 = system: OVCAR-4
NCI-H460 = system: NCI-H460
LOX IMVI = system: LOX IMVI
NCI-H226 = system: NCI-H226
SF-295 = system: SF-295
A498 = system: A498
HL-60 = system: HL-60
OVCAR-8 = system: OVCAR-8
NCI-H522 = system: NCI-H522
MDA-MB-231 = system: MDA-MB-231
U-251 = system: U-251
DU-145 = system: DU-145
COLO 205 = system: COLO 205
SK-MEL-2 = system: SK-MEL-2
HCT-116 = system: HCT-116
TK-10 = system: TK-10
OVCAR-3 = system: OVCAR-3
PC-3 = system: PC-3
MDA-N = system: MDA-N
T47D = system: T47D
UACC-257 = system: UACC-257
SN12C = system: SN12C
IGROV-1 = system: IGROV-1
CCRF-CEM = system: CCRF-CEM
M14 = system: M14
SF-268 = system: SF-268
OVCAR-5 = system: OVCAR-5
ACHN = system: ACHN
SF-539 = system: SF-539
SK-OV-3 = system: SK-OV-3
Malme-3M = system: Malme-3M
786-0 = system: 786-0
MCF7 = system: MCF7
SK-MEL-28 = system: SK-MEL-28
BT-549 = system: BT-549
MDA-MB-435 = system: MDA-MB-435
SNB-19 = system: SNB-19
EKVX = system: EKVX
SNB-75 = system: SNB-75
RPMI-8226 = system: RPMI-8226
HOP-62 = system: HOP-62
RXF 393 = system: RXF 393
HCT-15 = system: HCT-15
HOP-92 = system: HOP-92
NCI/ADR-RES = system: NCI/ADR-RES
SR = system: SR
UO-31 = system: UO-31
SW-620 = system: SW-620
SK-MEL-5 = system: SK-MEL-5
MOLT-4 = system: MOLT-4
Hs-578T = system: Hs-578T
UACC-62 = system: UACC-62
KM12 = system: KM12
K562 = system: K562
HCC 2998 = system: HCC 2998
CAKI-1 = system: CAKI-1

Measured: GI50

Cc1nc2ccccc2n1CCc1nc2ccccc2s1
active: NCI-H226 0.857 µM
87.7 µM: HCT-15
inactive: HT-29 21.1 µM | NCI-H23 30 µM | A549 23.8 µM | OVCAR-4 42.3 µM | NCI-H460 31.2 µM | LOX IMVI 64.9 µM | SF-295 8.49 µM | A498 14.8 µM | HL-60 14.3 µM | OVCAR-8 41.3 µM | NCI-H522 15.6 µM | MDA-MB-231 39.6 µM | U-251 75 µM | DU-145 70.5 µM | COLO 205 26.9 µM | SK-MEL-2 86.9 µM | HCT-116 25.9 µM | TK-10 45.4 µM | OVCAR-3 17.8 µM | PC-3 39.9 µM | MDA-N 48.9 µM | T47D 7.21 µM | UACC-257 9.95 µM | SN12C > 100 µM | IGROV-1 > 100 µM | CCRF-CEM 14 µM | M14 33 µM | SF-268 53.2 µM | OVCAR-5 > 100 µM | ACHN 20 µM | SF-539 35.2 µM | SK-OV-3 > 100 µM | Malme-3M 17.3 µM | 786-0 42.7 µM | MCF7 16.6 µM | SK-MEL-28 > 100 µM | BT-549 > 100 µM | MDA-MB-435 57.8 µM | SNB-19 > 100 µM | EKVX 7.23 µM | SNB-75 78 µM | RPMI-8226 15 µM | HOP-62 > 100 µM | RXF 393 50 µM | HOP-92 32.9 µM | NCI/ADR-RES 40.6 µM | SR 11.6 µM | UO-31 1.93 µM | SW-620 68.9 µM | SK-MEL-5 2.88 µM | MOLT-4 12.9 µM | Hs-578T 53.6 µM | UACC-62 60.8 µM | KM12 56.1 µM | K562 11 µM | HCC 2998 38.3 µM | CAKI-1 > 100 µM

NS(=O)(=O)c1ccc(NC(=O)Nc2ccccc2F)cc1
inactive: HT-29 76 µM | NCI-H23 > 100 µM | A549 > 100 µM | OVCAR-4 > 100 µM | NCI-H460 > 100 µM | LOX IMVI > 100 µM | NCI-H226 > 100 µM | A498 > 100 µM | HL-60 > 100 µM | OVCAR-8 > 100 µM | NCI-H522 > 100 µM | MDA-MB-231 > 100 µM | U-251 > 100 µM | DU-145 > 100 µM | COLO 205 > 100 µM | SK-MEL-2 > 100 µM | HCT-116 > 100 µM | TK-10 > 100 µM | OVCAR-3 > 100 µM | PC-3 > 100 µM | MDA-N > 100 µM | T47D 52.5 µM | UACC-257 > 100 µM | SN12C > 100 µM | IGROV-1 > 100 µM | M14 82.4 µM | SF-268 > 100 µM | OVCAR-5 > 100 µM | ACHN > 100 µM | SF-539 > 100 µM | SK-OV-3 > 100 µM | Malme-3M > 100 µM | 786-0 > 100 µM | MCF7 > 100 µM | SK-MEL-28 > 100 µM | BT-549 > 100 µM | MDA-MB-435 > 100 µM | SNB-19 > 100 µM | EKVX > 100 µM | SNB-75 > 100 µM | RPMI-8226 > 100 µM | HOP-62 > 100 µM | RXF 393 > 100 µM | HOP-92 > 100 µM | NCI/ADR-RES > 100 µM | SR > 100 µM | UO-31 41.7 µM | SW-620 > 100 µM | SK-MEL-5 > 100 µM | MOLT-4 > 100 µM | Hs-578T > 100 µM | UACC-62 72.3 µM | KM12 > 100 µM | K562 > 100 µM | HCC 2998 > 100 µM | CAKI-1 > 100 µM
> 100 µM: HCT-15
active: SF-295 0.243 µM

[O-][n+]1onc2c3nn(-c4ccccc4)nc3ccc21
49.5 µM: HCT-15
inactive: HT-29 35.2 µM | NCI-H23 41.6 µM | A549 > 100 µM | OVCAR-4 > 100 µM | NCI-H460 > 100 µM | LOX IMVI 13.2 µM | NCI-H226 > 100 µM | SF-295 > 100 µM | A498 > 100 µM | HL-60 2.35 µM | OVCAR-8 > 91.4 µM | NCI-H522 > 96.2 µM | MDA-MB-231 > 100 µM | U-251 > 100 µM | DU-145 17.8 µM | COLO 205 61.8 µM | SK-MEL-2 > 100 µM | HCT-116 > 100 µM | TK-10 > 71.1 µM | OVCAR-3 22.2 µM | PC-3 > 83.2 µM | MDA-N > 100 µM | T47D 7.4 µM | UACC-257 28.8 µM | SN12C > 100 µM | IGROV-1 > 100 µM | CCRF-CEM 25.6 µM | M14 > 100 µM | SF-268 > 86.7 µM | OVCAR-5 > 100 µM | ACHN 88.3 µM | SF-539 > 100 µM | SK-OV-3 > 100 µM | Malme-3M > 100 µM | 786-0 > 100 µM | MCF7 7.69 µM | SK-MEL-28 > 100 µM | BT-549 > 82.6 µM | MDA-MB-435 > 100 µM | SNB-19 > 100 µM | EKVX > 74.8 µM | SNB-75 > 100 µM | RPMI-8226 6.32 µM | HOP-62 77.1 µM | RXF 393 > 65.9 µM | HOP-92 > 100 µM | NCI/ADR-RES > 100 µM | SR 4.43 µM | UO-31 > 100 µM | SW-620 65.8 µM | SK-MEL-5 > 100 µM | MOLT-4 5.08 µM | Hs-578T 32.1 µM | UACC-62 > 86.1 µM | KM12 18.6 µM | K562 > 100 µM | HCC 2998 15.6 µM | CAKI-1 > 100 µM

COC(=O)[C@@H]1[C@H](OC(C)=O)CCC2[C@@]3(C[C@@H](c4ccoc4)O[C@@H]3OC)[C@H](C)CC[C@]21C(=O)OC (some centres not stated)
> 25 µM: HCT-15
inactive: HT-29 > 25 µM | NCI-H23 > 25 µM | A549 > 25 µM | OVCAR-4 > 25 µM | NCI-H460 > 25 µM | LOX IMVI > 25 µM | NCI-H226 > 25 µM | SF-295 > 25 µM | A498 > 25 µM | HL-60 19 µM | OVCAR-8 > 25 µM | NCI-H522 > 25 µM | MDA-MB-231 > 25 µM | U-251 > 25 µM | DU-145 > 25 µM | COLO 205 > 25 µM | SK-MEL-2 > 25 µM | HCT-116 > 25 µM | TK-10 > 25 µM | OVCAR-3 > 25 µM | PC-3 > 25 µM | MDA-N > 25 µM | T47D > 25 µM | UACC-257 > 25 µM | SN12C > 25 µM | IGROV-1 > 25 µM | CCRF-CEM > 25 µM | M14 > 25 µM | SF-268 > 25 µM | OVCAR-5 > 25 µM | ACHN > 25 µM | SF-539 > 25 µM | SK-OV-3 > 25 µM | 786-0 > 25 µM | MCF7 > 25 µM | BT-549 > 25 µM | MDA-MB-435 > 25 µM | SNB-19 > 25 µM | EKVX > 25 µM | SNB-75 > 25 µM | RPMI-8226 > 25 µM | RXF 393 > 25 µM | HOP-92 > 25 µM | NCI/ADR-RES > 25 µM | SR > 25 µM | UO-31 > 25 µM | SW-620 > 25 µM | SK-MEL-5 > 25 µM | MOLT-4 > 25 µM | Hs-578T > 25 µM | UACC-62 > 25 µM | KM12 > 25 µM | K562 > 25 µM | HCC 2998 > 25 µM | CAKI-1 > 25 µM
